Test results: patent US20040167226A1, “Methods for the treatment of pain and traumatic injury using benzamides and compositions containing the same” (priority 2002, published 2004)

Tests used:
[1] = PK parameter estimates, 30 mg/kg po in 1% methyl cellulose; format: in vivo, rats; details: rat, plasma, rats, 30 mg/kg po in 1% methyl cellulose, n = 3
Text: The time course of plasma concentration of compound N is depicted in FIG. 1 as well.

[2] = system: Taxol-induced mechanical allodynia; assay: Taxol-induced neuropathic pain rat model, 50% paw withdrawal threshold (up-down method); format: in vivo, Sprague-Dawley rats; details: rats, 50 mg/kg p.o. in 1% methylcellulose (positive control)
Text: Sprague-Dawley male rats with 150-160 grams of body weight were used in the studies presented herein. Rats were trained in the enclosure one hour per day in the morning for a one week period prior to obtaining the baseline response. Whereas the mouse studies assessed percentage of response, the rat studies determined 50% of the paw withdrawal threshold, also called the up-down method as developed by Chung and colleagues. In order to obtain consistent data, naïve rats with paw withdrawal threshold no less than 4 grams were included for further studies. Taxol at a dose of 1 mg/kg (body weight) was administered daily to rats intraperitoneally. As observed in mice, the rats treated with Taxol daily developed stable mechanical allodynia on day 9 and thereafter. On day 13 and day 14 of Taxol induction, the rats pain behavior in term of 50% of paw withdrawal threshold was measured. Only those rats with paw withdrawal threshold measurements no greater than 7 grams for two consecutive days were included for drug testing. Generally speaking, the mechanical allodynia in Taxol treated rats fell in the range of 1-4 gram of paw withdrawal threshold.
1 ml per kg of body weight of either 50 mg/ml or 20 mg/ml of Compound A was administered to rats via oral gavage feeding (p.o.), to yield a dose of either 50 mg/Kg (body weight) or 20 mg/Kg (body weight). The same corresponding volume of 1% methylcellulose was used as vehicle control. 34 male Sprague-Dawely rats were employed for the study. The baseline paw withdrawal threshold (grams of force applied to the plantar area of the right hind paw) and neuropathic pain induction with daily intraperitoneal administration of 1 mg/kg (body weight) was performed as indicated in the previous section. The Taxol treatment was continued for 15 days until the pain threshold remained relatively stable. Animals with baseline greater than 4 grams and with threshold […] post induction were included in the drug testing. 27 rats met the criteria for the next step studies and were randomly assigned into four groups. Group 1 consisting of 7 rats was given 1% methylcellulose as vehicle control group, 1 ml of vehicle per kilograms of body weight was administered to animal via p.o.; group 2 with 6 animals was dosed at 20 mg/kg (body weight) of Compound A via oral gavage feeding (p.o.); group 3 with 7 rats was dosed at 50 mg/kg of Compound A, and the fourth group with 7 rats received Gabapentine at 50 mg/kg via p.o. in the same vehicle as a positive control group. Those rats were habituated in the enclosure and 50% of paw withdrawal thresholds (grams of force) were measured using a set of von Frey filaments, as described in the previous section, at time points of 1, 2, 3, 6, and 24 hours postdosing in a blinded fashion. The tester had no knowledge of which animals received drug or vehicle. It was noted that rats tested were very sleepy in the late afternoon (for 6 hour postdosing measurement), thus the data would not be reliable for 6-hour postdosing time points. […] After finishing the 24 hour postdosing measurement, the paw withdrawal threshold of each animal was calculated and data was analyzed.

`CC(=O)Nc1cccc(C(=O)NC(C)(C)C)c1` [Compound D, N-tert-butyl-3-acetamidobenzamide] gave a melting point of 194 to 195 °C.

With `CC(C)(C)NC(=O)c1cccc([N+](=O)[O-])c1` [Compound G, N-tert-butyl-3-nitrobenzamide] the melting point was 123 to 125 °C.

With `CC(C)(C)NC(=O)c1ccc(N)cc1` [Compound N, N-tert-butyl-4-aminobenzamide] the AUC(0-inf) [1] was 1030 µg·h/mL, the Cmax [1] was 5400 ng/mL and the Tmax [1] was 0.5 h. The half-life ([1]; read-out: Elim.t1/2 (converted)) was 355 h and the melting point was 125 to 127 °C.

In the case of `NCC1(CC(=O)O)CCCCC1` [Gabapentine, reference compound], the “time of peak analgesic effect postdosing” value [2] is reported as 3 to 6 h.
